Laboratory results: patent US8642770B2, “Indole derivative” (Takeda Pharmaceutical Company Limited, priority 2010, dated 2014)

Tests used:
human MCHR1 [1] = biological target: T1, human MCHR1 (Homo sapiens, UniProt Q99705); assay: Human MCH receptor 1 (MCHR1) competitive binding assay, [125I]-MCH(4-19), CHO cell membrane fraction; settings: test compound 0.1 μM, human MCHR1-expressing CHO cell membrane, 25° C., 1 hr, read-out: Binding inhibition rate (0.1 μM)
T1 construct: expressed in transfected cells; host or cells: CHO cell clone 57 (membrane fraction)
Procedure: Determination of Human MCH Receptor 1 (MCHR1) Competitive Inhibitory Activity of Test Compound Using Binding Assay
Using human MCHR1(=SLC-1 receptor)-expressing CHO cell clone 57 and rat MCHR1-expressing CHO cell clone 44 described in WO01/82925, MCHR1-expressing CHO cellular membrane fractions were prepared by the following method. In phosphate buffered saline (pH 7.4) supplemented with 5 mM EDTA (ethylenediaminetetraacetic acid) were respectively suspended human and rat MCHR1-expressing CHO cells (1×10^8 cells) and centrifuged. Homogenate buffer (10 mL, 10 mM NaHCO3, 5 mM EDTA, pH 7.5, 0.5 mM PMSF (phenylmethylsulfonyl fluoride), 20 mg/L leupeptin, 4 mg/L E-64, 1 mg/L pepstatin A) was added to the pellets of the cells and, using Polytron Homogenizer, the mixture was homogenated. The supernatant obtained after centrifugation at 400×g for 10 min was further centrifuged at 100,000×g for 1 hr to give precipitate of the membrane fraction. The precipitate were suspended in 2 mL of assay buffer [20 mM Tris-HCl (pH 7.5), 5 mM EDTA, 0.5 mM PMSF, 20 mg/L leupeptin, 4 mg/L E-64, 1 mg/L pepstatin A]. The membrane fractions were suspended in assay buffer to a protein concentration of 2 mg/mL, and after dispensing, preserved at −80° C. and used upon thawing each time when in use.
The MCHR1 ligand binding inhibitory activity of the test compound was determined as follows. An MCHR1-expressing CHO cellular membrane fraction (175 μL) diluted with an assay buffer was dispensed to a 96 well polypropylene plate (3363, Corning). DMSO solution (2 μL), 100 μm cold MCH(1-19) diluted with DMSO solution (2 μL), or a test compound solution diluted with DMSO solution to various concentrations (2 μL) was added, and lastly, [^125I]-MCH(4-19) diluted with assay buffer (25 μL) was added to each well. The reaction mixture was reacted at 25° C. for 1 hr with stirring, and the reaction mixture was filtered by suction using a glass filter plate (GF/C, PerkinElmer). The filter was washed 3 times with a wash solution (300 μL, 50 mM Tris-HCl buffer, pH 7.5). The glass filter plate was dried, a liquid scintillator was added at 25 μL/well, and the residual radioactivity was measured by TopCount (PerkinElmer). The binding inhibition rate of the test compound was calculated by the following formula. Binding inhibition (%)=(radioactivity upon addition of test compound and hot MCH−radioactivity upon addition of cold MCH and hot MCH solution)/(radioactivity upon addition of DMSO solution and hot MCH−radioactivity upon addition of cold MCH and hot MCH solution)×100

[2] = system: Dietary obese male F344/Jcl rats; assay: Anorectic effect (food intake) in dietary obese male F344/Jcl rats; format: in vivo; settings: Rattus norvegicus, 48 h; oral, 0.5% methylcellulose suspension (5 mg/mL) at 2 mL/kg, on start day and evening of next day; food intake from initial administration to 2 days later; vs control group; read-out: Food intake inhibition rate (%)
From the text: Evaluation of Anorectic Effect Using Dietary Obese Male F344/Jcl Rats
Dietary obese male F344/Jcl rats (42-57-week-old) reared on a high-fat diet (Research Diets: D12451) from 5 weeks of age were used. From before the start of experiment, the rats were independently raised, a powder high-fat diet (Research Diets: D12451M) was given, tap water was orally administered for acclimation, and thereby the rats were habituated. The food intake from the evening of the day before the start of experiment to the next morning was measured, and the rats were grouped based on the food intake and the body weight of the previous day as indices. On the day of the start of experiment and in the evening of the next day, 0.5% methylcellulose solution was orally administered to the control group, and 0.5% methylcellulose suspension (5 mg/mL) of the test compound was orally administered to the compound administration group at 2 mL/kg (6 per group for both control group and compound administration group). The food intake from the initial administration to 2 days later was measured. The food intake inhibition rate of each compound administration group to the control group was calculated.

human MCHR1 [3] = biological target: T1, human MCHR1; assay: MCH receptor 1 antagonistic activity, Ca2+ mobilization assay in human MCHR1-expressing CHO cells; format: cell-based; settings: test compound 0.1 μM; human MCHR1-expressing CHO cell; ligand MCH (4-19) peptide 20 nM; Fluo4 fluorescence; read-out: Inhibition rate (%)
Procedure: Measurement of MCH Receptor 1 Antagonistic Activity of Test Compound Using Ca^2+ Mobilization Assay
CHO cell (CHO dhfr^−, clone #4) expressing a recombinant human MCHR1 gene for Ca^2+ mobilization assay was prepared by us. The cell was cultured in MEMα medium [445 mL of MEMα medium without nucleic acid and added with 5 mL of Penicillin-Streptomycin (Invitrogen) and 50 mL of dialyzed fetal bovine serum]. An integrated dispensing function fluorometer (CellLux, PerkinElmer) was used for Ca^2+ mobilization assay. CHO cells were sown in a 96 well plate (type 3904, Corning) with a black plate wall and clear well bottom at a density of 20000 cells/well, and cultured in an incubator for about 24 hr at 5% CO2, 37° C. The medium was removed, and the cells were washed with phosphate buffered saline (PBS). A Ca^2+ indicator dye reagent (DOJINDO LABORATORIES, Ca screening no-wash kit Fluo4) was added at 90 μL/well, and the dye was allowed to penetrate into the cell for 30 min in an incubator at 5% CO2, 37° C. The plate was set on a plate reader, a test compound solution diluted with an assay buffer [10 mM HEPES (pH 7.4), 1× assay buffer containing 0.1% BSA (DOJINDO LABORATORIES, attached to Ca screening no-wash kit Fluo4)] or DMSO solution was added at 10 μL/well, and ligand MCH (4-19) peptide (final concentration 20 nM) diluted with assay buffer or DMSO was added at 50 μL/well, during which changes in intracellular fluorescence were measured at 2 second intervals. The antagonistic activity of the test compound was calculated and shown as an inhibition rate (%) wherein the intracellular fluorescence activity resulting from the stimulation by the addition of ligand MCH (4-19) peptide was 100% and that of the well added with DMSO solution alone was 0%.

T1 sequence (Q99705 whole entry): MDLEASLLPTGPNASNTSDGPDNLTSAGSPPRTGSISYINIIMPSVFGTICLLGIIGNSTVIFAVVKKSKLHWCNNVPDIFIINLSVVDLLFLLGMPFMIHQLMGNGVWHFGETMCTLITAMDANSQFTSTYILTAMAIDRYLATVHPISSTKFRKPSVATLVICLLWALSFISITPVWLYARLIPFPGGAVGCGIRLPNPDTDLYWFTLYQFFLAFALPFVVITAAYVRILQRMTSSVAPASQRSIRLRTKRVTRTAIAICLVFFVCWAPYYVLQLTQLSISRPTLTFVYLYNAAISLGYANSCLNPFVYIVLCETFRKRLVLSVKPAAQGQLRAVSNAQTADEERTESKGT

| inhibition at 0.1 µM (human MCHR1 [1]) [%] | melting point [°C] | inhibition at 0.1 µM (human MCHR1 [3]) [%] | Structure (SMILES) | inhibition in vivo at 10 mg/kg [2] [%] |
| --- | --- | --- | --- | --- |
| 82 | 200 to 201 | – | Cn1c(CNC2CCS(=O)(=O)CC2)cc2cc(NC(=O)c3ccc(OCC4CC4)cc3)ccc21 [Example 6, 4-(cyclopropylmethoxy)-N-(2-{[(1,1-dioxidotetrahydro-2H-thiopyran-4-yl)amino]methyl}-1-methyl-1H-indol-5-yl)benzamide] | – |
| 98 | – | – | Cn1c(CN[C@H]2CC[C@](C)(O)CC2)cc2cc(NC(=O)c3ccc(OCC4CC4)cc3)ccc21 [Example 12, 4-(cyclopropylmethoxy)-N-(2-{[(trans-4-hydroxy-4-methylcyclohexyl)amino]methyl}-1-methyl-1H-indol-5-yl)benzamide] | – |
| 96 | – | – | Cn1c(CNCC(C)(C)C)cc2cc(NC(=O)c3ccc(OC[C@@H]4CCCO4)cc3)ccc21 [Example 15, N-(2-{[(2,2-dimethylpropyl)amino]methyl}-1-methyl-1H-indol-5-yl)-4-[(2S)-tetrahydrofuran-2-ylmethoxy]benzamide acetate] | 12.7 |
| 97 | 157 to 158 | 97 | Cn1c(CNCC2CCOCC2)cc2cc(NC(=O)c3ccc(OC[C@@H]4CCCO4)cc3)ccc21 [Example 17, N-(1-methyl-2-{[(tetrahydro-2H-pyran-4-ylmethyl)amino]methyl}-1H-indol-5-yl)-4-[(2S)-tetrahydrofuran-2-ylmethoxy]benzamide] | 14.7 |
| 91 | 128 to 129 | – | Cn1c(CNCC2CCOC2)cc2cc(NC(=O)c3ccc(OC[C@@H]4CCCO4)cc3)ccc21 (stereo partly drawn) [Example 20, N-(1-methyl-2-{[(tetrahydrofuran-3-ylmethyl)amino]methyl}-1H-indol-5-yl)-4-[(2S)-tetrahydrofuran-2-ylmethoxy]benzamide] | 20.3 |
| 97 | 175 to 176 | 97 | Cc1c(NC(=O)c2ccc(OCC3CC3)cc2)ccc2c1cc(CNCC(C)(C)O)n2C [Example 50, 4-(cyclopropylmethoxy)-N-(2-{[(2-hydroxy-2-methylpropyl)amino]methyl}-1,4-dimethyl-1H-indol-5-yl)benzamide] | 26.5 |
| 92 | 179 | – | Cc1c(NC(=O)c2ccc(OC[C@@H]3CCCO3)cc2)ccc2c1cc(CNCC(C)(C)C)n2C [Example 51, N-(2-{[(2,2-dimethylpropyl)amino]methyl}-1,4-dimethyl-1H-indol-5-yl)-4-[(2S)-tetrahydrofuran-2-ylmethoxy]benzamide] | – |
| 97 | 200 | 96 | Cc1c(NC(=O)c2ccc(OC[C@@H]3CCCO3)cc2)ccc2c1cc(CN[C@H]1CC[C@](C)(O)CC1)n2C [Example 53-2, N-(2-{[(trans-4-hydroxy-4-methylcyclohexyl)amino]methyl}-1,4-dimethyl-1H-indol-5-yl)-4-[(2S)-tetrahydrofuran-2-ylmethoxy]benzamide] | – |
| 98 | 170 | – | Cc1c(NC(=O)c2ccc(OCC3CC3)cc2)ccc2cc(CNCC(C)(C)O)[nH]c12 [Example 63, 4-(cyclopropylmethoxy)-N-(2-{[(2-hydroxy-2-methylpropyl)amino]methyl}-7-methyl-1H-indol-6-yl)benzamide] | – |
| 101 | 91 to 103 | – | Cc1c(NC(=O)c2ccc(OCC3CC3)cc2)ccc2cc(CN[C@H]3CC[C@](C)(O)CC3)[nH]c12 [Example 67, 4-(cyclopropylmethoxy)-N-(2-{[(trans-4-hydroxy-4-methylcyclohexyl)amino]methyl}-7-methyl-1H-indol-6-yl)benzamide] | – |
| 95 | 161 to 162 | – | Cc1c(NC(=O)c2ccc(OC[C@@H]3CCCO3)cc2)ccc2cc(CNCC3CCOCC3)[nH]c12 [Example 70, N-(7-methyl-2-{[(tetrahydro-2H-pyran-4-ylmethyl)amino]methyl}-1H-indol-6-yl)-4-[(2S)-tetrahydrofuran-2-ylmethoxy]benzamide] | – |
| 91 | 172 to 173 | – | Cc1c(NC(=O)c2ccc(OC[C@@H]3CCCO3)cc2)ccc2cc(CN3CCCC3)[nH]c12 [Example 74, N-[7-methyl-2-(pyrrolidin-1-ylmethyl)-1H-indol-6-yl]-4-[(2S)-tetrahydrofuran-2-ylmethoxy]benzamide] | – |
| 94 | 169 | – | Cc1c(NC(=O)c2ccc(OC[C@@H]3CCCO3)cc2)ccc2cc(CN3CCC(C)(O)CC3)[nH]c12 [Example 75, N-{2-[(4-hydroxy-4-methylpiperidin-1-yl)methyl]-7-methyl-1H-indol-6-yl}-4-[(2S)-tetrahydrofuran-2-ylmethoxy]benzamide] | 17.1 |
| 91 | 180 | – | Cc1c(NC(=O)c2ccc(OCC3CC3)cc2)ccc2cc(CNCC(C)(C)O)n(C)c12 [Example 78, 4-(cyclopropylmethoxy)-N-(2-{[(2-hydroxy-2-methylpropyl)amino]methyl}-1,7-dimethyl-1H-indol-6-yl)benzamide] | – |
| 99 | 197 to 198 | 96 | Cc1c(NC(=O)c2ccc(OC[C@@H]3CCCO3)cc2)ccc2cc(CNCC3CCOCC3)n(C)c12 [Example 83, N-(1,7-dimethyl-2-{[(tetrahydro-2H-pyran-4-ylmethyl)amino]methyl}-1H-indol-6-yl)-4-[(2S)-tetrahydrofuran-2-ylmethoxy]benzamide] | – |
| 100 | 159 to 160 | – | Cc1c(CNCC(C)(C)C)[nH]c2c(F)c(NC(=O)c3ccc(OC[C@@H]4CCCO4)cc3)ccc12 [Example 103, N-(2-{[(2,2-dimethylpropyl)amino]methyl}-7-fluoro-3-methyl-1H-indol-6-yl)-4-[(2S)-tetrahydrofuran-2-ylmethoxy]benzamide] | – |
